The target in this assay is T1, HDAC6 enzyme (Homo sapiens, UniProt Q9UBN7).
T1 construct: prepared by transducing full length HDAC6 gene into Sf-9 insect cells; GST; purchased SignalChem; host or cells: Sf-9 insect cells
T1 sequence (Q9UBN7 1-1215): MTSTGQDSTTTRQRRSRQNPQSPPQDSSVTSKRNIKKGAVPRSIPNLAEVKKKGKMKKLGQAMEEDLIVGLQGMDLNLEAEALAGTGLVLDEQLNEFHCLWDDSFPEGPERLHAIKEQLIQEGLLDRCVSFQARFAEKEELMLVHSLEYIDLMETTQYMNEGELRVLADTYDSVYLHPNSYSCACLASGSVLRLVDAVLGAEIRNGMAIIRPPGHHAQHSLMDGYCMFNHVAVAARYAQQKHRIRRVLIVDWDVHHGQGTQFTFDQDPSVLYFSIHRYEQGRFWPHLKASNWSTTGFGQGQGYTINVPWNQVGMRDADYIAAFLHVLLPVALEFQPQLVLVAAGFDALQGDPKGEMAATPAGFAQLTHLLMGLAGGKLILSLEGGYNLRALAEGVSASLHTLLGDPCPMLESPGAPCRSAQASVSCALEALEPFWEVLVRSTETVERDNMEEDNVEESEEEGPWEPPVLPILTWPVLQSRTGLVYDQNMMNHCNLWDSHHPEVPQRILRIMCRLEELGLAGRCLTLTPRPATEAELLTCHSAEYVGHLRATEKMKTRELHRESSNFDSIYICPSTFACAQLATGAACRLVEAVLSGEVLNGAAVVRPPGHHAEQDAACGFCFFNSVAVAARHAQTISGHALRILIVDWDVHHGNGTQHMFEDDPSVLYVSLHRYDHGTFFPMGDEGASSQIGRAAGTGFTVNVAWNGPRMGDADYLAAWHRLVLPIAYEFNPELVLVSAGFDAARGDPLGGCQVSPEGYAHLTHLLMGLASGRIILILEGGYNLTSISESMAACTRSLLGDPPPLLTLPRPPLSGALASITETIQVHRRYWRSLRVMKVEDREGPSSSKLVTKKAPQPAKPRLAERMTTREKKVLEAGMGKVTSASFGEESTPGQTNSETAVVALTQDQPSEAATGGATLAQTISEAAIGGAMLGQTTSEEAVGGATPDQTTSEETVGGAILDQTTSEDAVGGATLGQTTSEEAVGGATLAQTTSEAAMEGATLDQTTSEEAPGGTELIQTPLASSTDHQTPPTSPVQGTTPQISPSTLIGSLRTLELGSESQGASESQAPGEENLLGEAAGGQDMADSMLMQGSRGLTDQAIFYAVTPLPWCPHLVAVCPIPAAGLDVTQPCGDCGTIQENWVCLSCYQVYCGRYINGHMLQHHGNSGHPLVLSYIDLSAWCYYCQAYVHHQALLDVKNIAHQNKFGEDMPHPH
As to the kind of experiment: HDAC6 enzyme inhibitory assay (HDAC-Glo I/II Assay kit, luminescence). The following applies: 10 μM test compound; wells without enzyme = 100% inhibition; read-out: HDAC6 inhibitory rate (%) (10 μM). The format is biochemical. The essentials: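 Full-length human HDAC6, GST-purified from Sf-9 cells, was preincubated with compound for 60 min at room temperature in Tris-HCl pH 7.5 buffer with glutathione and Tween-20. Substrate-developer was then added, and luminescence was read after 20 min at room temperature. Inhibition was expressed relative to no-enzyme wells, taken as 100% inhibition.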

In the case of `CN1CCC(COc2cccnc2-c2cc(F)cc(-c3nnc(C(F)F)o3)c2)CC1=O` (stereo not drawn) [Example 14a, 4-{[(2-{3-[5-(difluoromethyl)-1,3,4-oxadiazol-2-yl]-5-fluorophenyl}pyridin-3-yl)oxy]methyl}-1-methylpiperidin-2-one], the inhibition at 10 µM turned out to be 97%.

In the case of `CN1C(=O)c2cc(-c3nnc(C(F)F)o3)ccc2OC1(C)C1CCCCC1` (stereo not drawn) [Example 14b, 2-cyclohexyl-6-[5-(difluoromethyl)-1,3,4-oxadiazol-2-yl]-2,3-dimethyl-2,3-dihydro-4H-1,3-benzoxazin-4-one], the inhibition at 10 µM came out at 98%.

Regarding `O=C(CC(F)(F)F)N(Cc1ccc(F)cc1)N1Cc2ccc(-c3nnc(C(F)F)o3)cc2C1=O` [Example 14c, N-{6-[5-(difluoromethyl)-1,3,4-oxadiazol-2-yl]-1-oxo-1,3-dihydro-2H-isoindol-2-yl}-3,3,3-trifluoro-N-[(4-fluorophenyl)methyl]propanamide], the inhibition at 10 µM stood at 100%.

Take `O=C1CCCN1CCOc1cccnc1-c1cc(F)cc(-c2nnc(C(F)F)o2)c1` [Example 15a, 1-{2-[(2-{3-[5-(difluoromethyl)-1,3,4-oxadiazol-2-yl]-5-fluorophenyl}pyridin-3-yl)oxy]ethyl}pyrrolidin-2-one]: the inhibition at 10 µM came to 92%.

Take `O=C1NN(CC(F)(F)F)Cc2ccc(-c3nnc(C(F)F)o3)cc21` [Example 15b, 7-[5-(difluoromethyl)-1,3,4-oxadiazol-2-yl]-3-(2,2,2-trifluoroethyl)-3,4-dihydrophthalazin-1(2H)-one]: the inhibition at 10 µM was found to be 88%.

Regarding `O=C1c2cc(-c3nnc(C(F)F)o3)ccc2CN1NCc1ccc(F)cn1` [Example 15c, 6-[5-(difluoromethyl)-1,3,4-oxadiazol-2-yl]-2-{[(5-fluoropyridin-2-yl)methyl]amino}-2,3-dihydro-1H-isoindol-1-one], the inhibition at 10 µM turned out to be 99%.

In the case of `CC(C)(C)OC(=O)N1CCC(Oc2cccnc2-c2cc(F)cc(-c3nnc(C(F)F)o3)c2)CC1` [Example 16a, tert-butyl 4-[(2-{3-[5-(difluoromethyl)-1,3,4-oxadiazol-2-yl]-5-fluorophenyl}pyridin-3-yl)oxy]piperidine-1-carboxylate], the inhibition at 10 µM turned out to be 98%.

`CN1C(=O)c2cc(-c3nnc(C(F)F)o3)ccc2OC1(C)c1ccccc1Cl` (stereo not drawn) [Example 16b, 2-(2-chlorophenyl)-6-[5-(difluoromethyl)-1,3,4-oxadiazol-2-yl]-2,3-dimethyl-2,3-dihydro-4H-1,3-benzoxazin-4-one]: the inhibition at 10 µM is 98%.

Take `O=C(OCC(F)F)N(Cc1ccc(F)cc1)N1Cc2ccc(-c3nnc(C(F)F)o3)cc2C1=O` [Example 16c, 2,2-difluoroethyl {6-[5-(difluoromethyl)-1,3,4-oxadiazol-2-yl]-1-oxo-1,3-dihydro-2H-isoindol-2-yl}[(4-fluorophenyl)methyl]carbamate]: the inhibition at 10 µM was 100%.

Take `CC(C)(C)OC(=O)N1CCCC1COc1cccnc1-c1cc(F)cc(-c2nnc(C(F)F)o2)c1` (stereo not drawn) [Example 17a]: the inhibition at 10 µM came out at 96%.

In the case of `CN1C(=O)c2cc(-c3nnc(C(F)F)o3)ccc2OC1(C)c1ccc(C(F)(F)F)cc1` (stereo not drawn) [Example 17b, 6-[5-(difluoromethyl)-1,3,4-oxadiazol-2-yl]-2,3-dimethyl-2-[4-(trifluoromethyl)phenyl]-2,3-dihydro-4H-1,3-benzoxazin-4-one], the inhibition at 10 µM was found to be 100%.

On to `O=C1c2cc(-c3nnc(C(F)F)o3)ccc2CN1NCC1CCOCC1` [Example 17c, 6-[5-(difluoromethyl)-1,3,4-oxadiazol-2-yl]-2-{[(oxan-4-yl)methyl]amino}-2,3-dihydro-1H-isoindol-1-one], for which the inhibition at 10 µM turned out to be 98%.

In the case of `CC1(COc2cccnc2-c2cc(F)cc(-c3nnc(C(F)F)o3)c2)COC1` [Example 18a], the inhibition at 10 µM was found to be 98%.

Take `COc1ccc(C2(C)Oc3ccc(-c4nnc(C(F)F)o4)cc3C(=O)N2C)cc1` (stereo not drawn) [Example 18b, 6-[5-(difluoromethyl)-1,3,4-oxadiazol-2-yl]-2-(4-methoxyphenyl)-2,3-dimethyl-2,3-dihydro-4H-1,3-benzoxazin-4-one]: the inhibition at 10 µM amounted to 99%.

As to `O=C1c2cc(-c3nnc(C(F)F)o3)ccc2CN1N(CC1CCOCC1)CC1CCOCC1` [Example 18c, 2-{bis[(oxan-4-yl)methyl]amino}-6-[5-(difluoromethyl)-1,3,4-oxadiazol-2-yl]-2,3-dihydro-1H-isoindol-1-one], the inhibition at 10 µM is 99%.

With `O=C1COC[C@@H](Cc2ccccc2)N1c1cc(-c2nnc(C(F)F)o2)ccn1` [Example 19a, (5R)-5-benzyl-4-{4-[5-(difluoromethyl)-1,3,4-oxadiazol-2-yl]pyridin-2-yl}morpholin-3-one], the inhibition at 10 µM was found to be 99%.

In the case of `CN1C(=O)c2cc(-c3nnc(C(F)F)o3)ccc2OC1(C)c1cccc(Cl)c1` (stereo not drawn) [Example 19b, 2-(3-chlorophenyl)-6-[5-(difluoromethyl)-1,3,4-oxadiazol-2-yl]-2,3-dimethyl-2,3-dihydro-4H-1,3-benzoxazin-4-one], the inhibition at 10 µM worked out at 100%.

On to `O=C1c2cc(-c3nnc(C(F)F)o3)ccc2CN1NCCc1ccc(F)cc1F` [Example 19c, 6-[5-(difluoromethyl)-1,3,4-oxadiazol-2-yl]-2-{[2-(2,4-difluorophenyl)ethyl]amino}-2,3-dihydro-1H-isoindol-1-one], for which the inhibition at 10 µM stood at 98%.

Take `Fc1cc(-c2nnc(C(F)F)o2)cc(-c2nccn2Cc2ccccc2Cl)c1` [Example 20a, 2-(3-{1-[(2-chlorophenyl)methyl]-1H-imidazol-2-yl]-5-fluorophenyl)-5-(difluoromethyl)-1,3,4-oxadiazole]: the inhibition at 10 µM came to 97%.

On to `CN1C(=O)c2cc(-c3nnc(C(F)F)o3)ccc2OC1(C)c1ccc(C#N)cc1` (stereo not drawn) [Example 20b, 4-{6-[5-(difluoromethyl)-1,3,4-oxadiazol-2-yl]-2,3-dimethyl-4-oxo-3,4-dihydro-2H-1,3-benzoxazin-2-yl}benzonitrile], for which the inhibition at 10 µM came to 99%.

As to `Fc1cc(-c2nnc(C(F)F)o2)cc(-c2nccn2Cc2cccc(Cl)c2)c1` [Example 21a, 2-(3-[1-[(3-chlorophenyl)methyl]-1H-imidazol-2-yl}-5-fluorophenyl)-5-(difluoromethyl)-1,3,4-oxadiazole], the inhibition at 10 µM was found to be 93%.

As to `CN1C(=O)c2cc(-c3nnc(C(F)F)o3)ccc2OC1(C)c1ccc(OC(F)(F)F)cc1` (stereo not drawn) [Example 21b, 6-[5-(difluoromethyl)-1,3,4-oxadiazol-2-yl]-2,3-dimethyl-2-[4-(trifluoromethoxy)phenyl]-2,3-dihydro-4H-1,3-benzoxazin-4-one], the inhibition at 10 µM is 99%.

`O=C1c2cc(-c3nnc(C(F)F)o3)ccc2CN1N(CCC1CCOCC1)Cc1ccc(F)cc1` [Example 21c, 6-[5-(difluoromethyl)-1,3,4-oxadiazol-2-yl]-2-{[(4-fluorophenyl)methyl][2-(oxan-4-yl)ethyl]amino}-2,3-dihydro-1H-isoindol-1-one]: the inhibition at 10 µM turned out to be 99%.

`Fc1cc(-c2nnc(C(F)F)o2)cc(-c2nccn2Cc2ccc(Cl)cc2)c1` [Example 22a, 2-(3-{1-[(4-chlorophenyl)methyl]-1H-imidazol-2-yl}-5-fluorophenyl)-5-(difluoromethyl)-1,3,4-oxadiazole]: the inhibition at 10 µM came to 99%.

As for `Cc1ccc(C2(C)Oc3ccc(-c4nnc(C(F)F)o4)cc3C(=O)N2C)cc1` (stereo not drawn) [Example 22b, 6-[5-(difluoromethyl)-1,3,4-oxadiazol-2-yl]-2,3-dimethyl-2-(4-methylphenyl)-2,3-dihydro-4H-1,3-benzoxazin-4-one], the inhibition at 10 µM was 100%.

In the case of `CC(NN1Cc2ccc(-c3nnc(C(F)F)o3)cc2C1=O)c1ccc(F)cc1` (stereo not drawn) [Example 22c, 6-[5-(difluoromethyl)-1,3,4-oxadiazol-2-yl]-2-{[1-(4-fluorophenyl)ethyl]amino}-2,3-dihydro-1H-isoindol-1-one], the inhibition at 10 µM was 100%.

`Cn1ccc(Cn2ccnc2-c2cc(F)cc(-c3nnc(C(F)F)o3)c2)n1` [Example 23a, 2-(difluoromethyl)-5-(3-fluoro-5-{1-[(1-methyl-1H-pyrazol-3-yl)methyl]-1H-imidazol-2-yl}phenyl)-1,3,4-oxadiazole]: the inhibition at 10 µM was 96%.

The values are drawn from patent publication US12084436B2, “Heterocyclic compound” (Takeda Pharmaceutical Company Limited, priority 2019, dated 2024).
